According to patent US5130462A, “Cyclobutane derivatives” (E. R. Squibb & Sons, Inc., priority 1991, dated 1992):
pIC50: −log10 of the molar value.

How the values were obtained:
HCMV = HCMV plaque reduction assay in WI-38 cells; format: cell-based, human cytomegalovirus, strain AD 169; settings: Human betaherpesvirus 5, 6-7 days, 37° C, read-out: ID50 HCMV
Description: (§1) Assays were performed in cell culture systems to determine the concentrations of compounds that are effective in preventing several kinds of viral infections.
(§2) HSV-1 (herpes simplex virus type 1, strain Schooler), HSV-2 (herpes simplex virus type 2, strain 186), VZV (varicella zoster virus, strain ELLEN), HCMV (human cytomegalovirus, strain AD 169), MuLV (murine leukemia virus, strain CAS), HIV (human immunodeficiency virus, strain HTLV-IIIB).
(§3) HSV-1, HSV-2, HCMV, and VZV antiviral assays: Virus was adsorbed to WI-38 cell culture monolayers in 6 well culture plates (Costar, Cambridge, Mass.) for 1 hour prior to addition of maintenance medium containing duplicate dilutions of the test compound. Inhibition of plaque development was evaluated on fixed and stained monolayers after 4 days incubation at 37° C. for HSV-1 and HSV-2 and after 6-7 days incubation at 37° C. for HCMV and VZV. ID50 values were determined from the drug concentration which conferred at least a 50% plaque reduction compared to virus controls.

HSV-2 = HSV-2 plaque reduction assay in WI-38 cells; format: cell-based, herpes simplex virus type 2, strain 186; settings: Human alphaherpesvirus 2, WI-38, 96 h, read-out: ID50 HSV-2
Description: as §1, §2, §3

HIV = HIV antiviral assay, inhibition of CPE in CEM cells (XTT-PMS); format: cell-based, strain HTLV-IIIB; settings: Human immunodeficiency virus 1, CCRF-CEM, 168 h, 7 days, read-out: ID50 HIV
Description: as §1, §2
HIV antiviral assay: Suspensions of CEM(Nara and Fischinger, Nature, 332:469, 1988) cells were infected at a multiplicity of infection (e.g. virus/cell) of 0.12 with HIV (strain HTLV-III B). […] Following incubation, viable cell numbers were counted in each well using a colorimetric assay following incubation of cells with XTT-PMS solution (XTT tetrazolium reagent plus phenazine methosulfate PMS).
Percent reduction of viral cytopathic effect (CPE) in drug treated compared to untreated virus infected cells, and percent reduction of cell viability in drug treated uninfected cells compared to untreated controls were calculated and plotted versus the drug concentrations tested. From these plots, the IDso (the minimum drug concentration that inhibits CPE by 50%) for each drug was calculated.

VZV = VZV plaque reduction assay in WI-38 cells; format: cell-based, varicella zoster virus, strain ELLEN; settings: Human alphaherpesvirus 3, 6-7 days, 37° C, read-out: ID50 VZV
Description: as §1, §2, §3

Compound	pIC50 (HCMV)	pIC50 (HSV-2)	pIC50 (HIV)	pIC50 (VZV)
O=c1[nH]c(=O)n([C@H]2C[C@@H](CO)[C@@H]2CO)cc1/C=C/Br (relative stereo) [[1α(E),2β,3α]-1-[2,3-Bis(hydroxymethyl)-cyclobutyl]-5-(2-bromoethenyl)-2,4(1H,3H)-pyrimidinedione]	< 3.52	< 3.52	–	–
Nc1nc2c(ncn2[C@H]2C[C@@H](CO)[C@@H]2CO)c(=O)[nH]1 (relative stereo) [(1α,2β,3α)-9-[2,3-Bis(hydroxymethyl)cyclobutyl]guanine]	–	–	4.52	–
O=c1[nH]c(=O)n([C@H]2C[C@@H](CO)[C@@H]2CO)cc1I (relative stereo) [(1α,2β,3α)-1-[2,3-Bis(hydroxymethyl)cyclobutyl]-5-iodo-2,4(1H,3H)-pyrimidinedione]	< 3.55	< 3.55	–	–
Nc1nc2c(nnn2[C@H]2C[C@@H](CO)[C@@H]2CO)c(=O)[nH]1 (relative stereo) [(1α,2β,3α)-5-Amino-3-[2,3-bis(hydroxymethyl)cyclo-butyl]-3,6-dihydro-7H-1,2,3-triazolo[4,5-d]-pyrimidin-7-one]	–	–	–	4.42 to 5.42
Nc1ncnc2c1ncn2[C@H]1C[C@@H](CO)[C@@H]1CO (relative stereo) [(1α,2β,3α)-3-(6-Amino-9H-purin-9-yl)-1,2-cyclobutanedimethanol]	–	–	5.17	–
